Here are results for 8 compounds from patent EP3807270B1, “NOVEL HETEROARYL HETEROCYCLYL COMPOUNDS FOR THE TREATMENT OF AUTOIMMUNE DISEASE” (F. Hoffmann-La Roche AG, priority 2018, dated 2019).

The term inhibition denotes the relative decrease from the control value, in per cent.

The target in one data set is T1, CYP2D6 (Homo sapiens, UniProt P10635).
T1 construct: tissue BD-Gentest 452117; host or cells: human liver microsomes
The data set is described as follows: CYP inhibition assay in human liver microsome. The conditions noted are these: human liver microsomes, probe dextromethorphan, 10µM test compound, dextromethorphan substrate, <0: not or weak inhibitor, read-out: CYP 2D6 inhibition %@10µM. In kind it is in vitro ADME. In a few lines: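 HLM mixed with CYP2D6 substrate, preincubated 10 min at 37 °C, started with NADPH regenerating system and run 10 min at 37 °C before acetonitrile quench. Metabolite measured by RapidFire MS/MS against D3-dextrorphan internal standard. % inhibition scaled between DMSO and concentrated-inhibitor controls.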
On the technique in general: Liver microsomes are a subcellular fraction often used to study metabolism.

The next data set addresses T2, hTLR9 (Homo sapiens, UniProt Q9NR96).
T2 sequence (Q9NR96 26-1032): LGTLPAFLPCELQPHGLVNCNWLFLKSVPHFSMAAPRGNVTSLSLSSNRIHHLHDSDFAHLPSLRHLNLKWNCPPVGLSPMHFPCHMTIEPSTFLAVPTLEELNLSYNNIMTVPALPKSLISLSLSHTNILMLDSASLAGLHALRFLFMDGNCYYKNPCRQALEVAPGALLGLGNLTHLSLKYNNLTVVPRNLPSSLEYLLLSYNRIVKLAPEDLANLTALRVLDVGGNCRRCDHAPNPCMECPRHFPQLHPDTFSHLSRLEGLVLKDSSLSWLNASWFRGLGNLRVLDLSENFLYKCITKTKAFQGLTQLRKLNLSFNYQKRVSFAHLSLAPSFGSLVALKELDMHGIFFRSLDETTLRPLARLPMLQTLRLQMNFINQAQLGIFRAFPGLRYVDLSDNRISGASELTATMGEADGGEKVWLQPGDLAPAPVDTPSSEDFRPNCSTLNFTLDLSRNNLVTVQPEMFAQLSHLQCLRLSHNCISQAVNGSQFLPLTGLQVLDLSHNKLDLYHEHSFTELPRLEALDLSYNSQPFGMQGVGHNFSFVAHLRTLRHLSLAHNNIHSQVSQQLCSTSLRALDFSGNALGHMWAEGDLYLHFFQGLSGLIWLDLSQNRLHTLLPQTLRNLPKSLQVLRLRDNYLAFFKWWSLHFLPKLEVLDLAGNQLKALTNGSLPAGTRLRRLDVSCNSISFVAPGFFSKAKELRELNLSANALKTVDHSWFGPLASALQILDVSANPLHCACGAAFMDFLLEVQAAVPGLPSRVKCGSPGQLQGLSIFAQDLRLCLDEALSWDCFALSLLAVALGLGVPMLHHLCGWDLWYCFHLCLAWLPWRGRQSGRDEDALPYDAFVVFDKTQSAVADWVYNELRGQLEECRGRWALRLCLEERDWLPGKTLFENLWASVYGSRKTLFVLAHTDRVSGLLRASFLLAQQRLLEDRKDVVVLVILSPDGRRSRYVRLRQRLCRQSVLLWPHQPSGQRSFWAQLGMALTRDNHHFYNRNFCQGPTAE
Put plainly: HEK293-Blue-hTLR-9 cells assay (SEAP reporter, ODN2006 stimulation). The format is cell-based. On the set-up: host or cells: HEK293 (HEK-Blue). The conditions noted are these: HEK293-Blue-hTLR9 cells, ODN2006, 20 hrs; read-out: HEK/hTLR9 IC50. The method, boiled down: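 HEK293-Blue-hTLR9 cells (250,000-450,000 cells/mL) in DMEM with 10% FBS were treated with serially diluted compound (1% DMSO final) plus ODN2006 for 20 hrs at 37 °C. Supernatant SEAP activity was measured with QUANTI-Blue substrate for 2 hrs at 37 °C, reading absorbance at 620-655 nm.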

T1 sequence (P10635 whole entry): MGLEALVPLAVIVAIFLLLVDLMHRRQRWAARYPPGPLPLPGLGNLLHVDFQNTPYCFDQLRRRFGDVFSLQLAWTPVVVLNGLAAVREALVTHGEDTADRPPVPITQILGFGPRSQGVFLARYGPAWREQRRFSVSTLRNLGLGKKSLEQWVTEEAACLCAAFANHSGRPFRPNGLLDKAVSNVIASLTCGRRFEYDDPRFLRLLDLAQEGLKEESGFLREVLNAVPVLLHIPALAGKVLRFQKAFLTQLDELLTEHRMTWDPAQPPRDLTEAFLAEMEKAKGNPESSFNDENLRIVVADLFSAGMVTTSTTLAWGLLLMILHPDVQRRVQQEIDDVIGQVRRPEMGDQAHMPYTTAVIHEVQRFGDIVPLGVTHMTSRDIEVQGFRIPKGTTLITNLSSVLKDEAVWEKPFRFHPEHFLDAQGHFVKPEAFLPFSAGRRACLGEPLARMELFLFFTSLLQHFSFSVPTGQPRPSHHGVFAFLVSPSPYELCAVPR

On to `C[C@@H]1CN(c2ccc(C#N)c3ncccc23)C[C@H](CN2CC3(C2)CN(c2ccc4c(n2)CCNC4)CCO3)O1` [Example 49, 5-[(2R,6S)-2-methyl-6-[[8-(5,6,7,8-tetrahydro-1,6-naphthyridin-2-yl)-5-oxa-2,8-diazaspiro[3.5]nonan-2-yl]methyl]morpholin-4-yl]quinoline-8-carbonitrile], for which the inhibition at 10 min, 10 µM at CYP2D6 amounted to 22%. Further, the IC50 at hTLR9 came to 48 nM.

On to `C[C@@H]1CN(c2ccc(C#N)c3ncccc23)C[C@H](CN2CC3(C2)CN(c2cnc4c(n2)CCNC4)CCO3)O1` [Example 50, 5-[(2R,6S)-2-methyl-6-[[8-(5,6,7,8-tetrahydropyrido[3,4-b]pyrazin-2-yl)-5-oxa-2,8-diazaspiro [3.5]nonan-2-yl]methyl]morpholin-4-yl] quinoline-8-carbonitrile], for which the inhibition at 10 min, 10 µM on CYP2D6 was 10.5%. Also, the IC50 at hTLR9 worked out at 69 nM.

With `C[C@@H]1CN(c2ccc(C#N)c3ncccc23)C[C@H](CN2C[C@@H]3[C@@H](C2)OCCN3c2cnc3c(c2)CCNC3)O1` [Example 52, 5-[(2S,6R)-2-[[(4aR,7aR)-4-(5,6,7,8-tetrahydro-1,7-naphthyridin-3-yl)-2,3,4a,5,7,7a-hexahydropyrrolo[3,4-b][1,4]oxazin-6-yl]methyl]-6-methylmorpholin-4-yl]quinoline-8-carbonitrile], the inhibition at 10 min, 10 µM on CYP2D6 was 5%. The IC50 on hTLR9 turned out to be 44 nM.

Turning to `C[C@@H]1CN(c2ccc(C#N)c3ncccc23)C[C@H](CN2CCN(c3cnc4c(c3)CNCC4)C(C)(C)C2)O1` [Example 56, 5-[(2S,6R)-2-[[3,3-dimethyl-4-(5,6,7,8-tetrahydro-1,6-naphthyridin-3-yl)piperazin-1-yl]methyl]-6-methyl-morpholin-4-yl]quinoline-8-carbonitrile], at CYP2D6, the inhibition at 10 min, 10 µM is -2.5%. The IC50 at hTLR9 turned out to be 168 nM.

`C[C@@H]1CN(c2ccc(C#N)c3ncccc23)C[C@H](CN2CCC(Nc3ncc4c(n3)CCNC4)C2)O1` (stereo partly drawn) [Example 57, 5-[(2R,6S)-2-methyl-6-[[3-(5,6,7,8-tetrahydropyrido [4,3-d]pyrimidin-2-ylamino)pyrrolidin-1-yl]methyl]morpholin-4-yl] quinoline-8-carbonitrile]: at CYP2D6, the inhibition at 10 min, 10 µM is -8%. For the same compound, the IC50 on hTLR9 is 36 nM.

`COC1CNCc2ccc(N3CCN(C[C@H]4CN(c5ccc(C#N)c6ncccc56)C[C@@H](C)O4)CC3)cc21` (stereo partly drawn) [Example 58, 5-[(2S,6R)-2-[[4-(4-methoxy-1,2,3,4-tetrahydroisoquinolin-6-yl)piperazin-1-yl]methyl]-6-methyl-morpholin-4-yl]quinoline-8-carbonitrile]: the inhibition at 10 min, 10 µM on CYP2D6 stood at 13%. Further, the IC50 on hTLR9 came out at 92 nM.

Regarding `C[C@@H]1CN(c2ccc(C#N)c3ncccc23)C[C@H](CN2CCN(c3ccc4c(n3)CNCC4)CC2)O1` [Example 69, 5-[(2R,6S)-2-methyl-6-[[4-(5,6,7,8-tetrahydro-1,7-naphthyridin-2-yl)piperazin-1-yl]methyl]morpholin-4-yl]quinoline-8-carbonitrile], the inhibition at 10 min, 10 µM at CYP2D6 came out at 8.5%. For the same compound, the IC50 at hTLR9 was found to be 83 nM.

As to `C[C@@H]1CN(c2ccc(C#N)c3nccnc23)C[C@H](CN2CCN(c3cc4c(cn3)CCNC4)CC2)O1` [Example 80, 8-[(2R,6S)-2-methyl-6-[[4-(5,6,7,8-tetrahydro-2,6-naphthyridin-3-yl)piperazin-1-yl]methyl]morpholin-4-yl]quinoxaline-5-carbonitrile], on CYP2D6, the inhibition at 10 min, 10 µM came out at 7%. Moreover, the IC50 at hTLR9 came out at 100 nM.
